Reference: patent US10961551B2, “Process for producing at least one metabolite of interest by conversion of a pentose in a microorganism” (INSTITUT NATIONAL DE LA RECHERCHE AGRONOMIQUE—INRA, priority 2014, dated 2021)
Where two headings read alike, the source gives them in different places.

Key:
[1] = molecular target: T1, Fructose-16bP aldolase Aldo-B (aldolase B), H. sapiens, SEQ ID NO:2 (Homo sapiens, UniProt P05062); assay: Kinetic parameters of candidate aldolase by coupled NADH consumption assay; type: biochemical; settings: Hepes buffer pH 7, NADH consumption at 340 nm
T1 sequence (P05062 1-364): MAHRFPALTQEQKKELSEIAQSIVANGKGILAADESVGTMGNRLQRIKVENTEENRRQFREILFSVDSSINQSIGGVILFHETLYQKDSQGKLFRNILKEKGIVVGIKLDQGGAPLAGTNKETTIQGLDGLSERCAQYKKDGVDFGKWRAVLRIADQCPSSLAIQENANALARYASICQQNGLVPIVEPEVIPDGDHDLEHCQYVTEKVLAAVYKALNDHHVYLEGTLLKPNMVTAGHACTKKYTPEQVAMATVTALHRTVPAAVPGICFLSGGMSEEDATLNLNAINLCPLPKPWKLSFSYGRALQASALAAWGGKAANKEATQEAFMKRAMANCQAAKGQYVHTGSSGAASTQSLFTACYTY
Description: (§1) The cloning of the candidate aldolases was done by amplifying aldoB, fbaB and agaY by PCR (using, respectively, the primer pairs P5/P6, P7/P8 and P11/P12 listed in table 3). This amplification was performed from the plasmid peX-A-aldoB carrying aldoB with codon optimization (Eurofins) or from the E. coli genomic DNA for fbaB and agaY, respectively. The fragments were then cloned in pGEM (Invitrogen). […] The ligation product is transformed in the E. coli strain BL21(DE3).

[2] = molecular target: T2, Fructose-16bP aldolase FbaB (fructose-1,6 bisphosphate aldolase B), E. coli, SEQ ID NO:9 (Escherichia coli, UniProt P0A991); assay: as above; type: biochemical; settings: Hepes buffer pH 7, NADH consumption at 340 nm
T2 sequence (P0A991 1-350): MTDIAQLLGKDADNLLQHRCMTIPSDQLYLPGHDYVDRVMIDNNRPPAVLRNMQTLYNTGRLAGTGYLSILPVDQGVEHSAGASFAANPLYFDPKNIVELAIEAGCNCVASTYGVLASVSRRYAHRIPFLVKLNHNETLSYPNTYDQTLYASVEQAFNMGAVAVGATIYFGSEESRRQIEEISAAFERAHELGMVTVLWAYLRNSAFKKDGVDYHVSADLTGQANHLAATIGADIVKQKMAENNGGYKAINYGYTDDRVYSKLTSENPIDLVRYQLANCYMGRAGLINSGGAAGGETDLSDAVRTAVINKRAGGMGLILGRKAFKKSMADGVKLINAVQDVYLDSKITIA
Description: as §1

[3] = molecular target: (L)-rhamnulose kinase RhaB, E. coli, SEQ ID NO:6 (Escherichia coli, UniProt P32171); assay: Kinetic parameters of candidate kinase by pyruvate kinase/lactate dehydrogenase coupling reaction; type: biochemical; settings: Table 1A; 4 mM ATP, Hepes buffer pH 7, NADH at 340 nm
[4] = molecular target: T3, L-fuculokinase FucK (fuculose kinase), E. coli, SEQ ID NO:5 (Escherichia coli, UniProt P11553); assay: as above; type: biochemical; settings: Table 1A; 4 mM ATP, Hepes buffer pH 7, NADH at 340 nm
T3 sequence (P11553 1-472): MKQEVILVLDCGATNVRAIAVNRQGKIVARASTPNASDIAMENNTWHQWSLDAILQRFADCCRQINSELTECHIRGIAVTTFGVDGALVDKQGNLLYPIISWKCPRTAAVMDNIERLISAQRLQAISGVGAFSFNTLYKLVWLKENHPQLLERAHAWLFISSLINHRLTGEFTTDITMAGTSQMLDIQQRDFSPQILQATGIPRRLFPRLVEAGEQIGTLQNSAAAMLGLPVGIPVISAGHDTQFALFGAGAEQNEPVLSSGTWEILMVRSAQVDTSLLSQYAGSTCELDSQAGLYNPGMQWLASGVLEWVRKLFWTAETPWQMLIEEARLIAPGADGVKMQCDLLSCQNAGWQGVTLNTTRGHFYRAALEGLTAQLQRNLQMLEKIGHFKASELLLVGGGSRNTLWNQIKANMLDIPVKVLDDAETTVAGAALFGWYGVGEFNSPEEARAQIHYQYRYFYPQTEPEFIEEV

[5] = molecular target: T4, Ketohexokinase Khk-C (ketohexokinase C), H. sapiens, SEQ ID NO:1 (Homo sapiens, UniProt P50053); settings: 4 mM ATP, Hepes buffer pH 7, NADH at 340 nm
T4 sequence (P50053 1-298): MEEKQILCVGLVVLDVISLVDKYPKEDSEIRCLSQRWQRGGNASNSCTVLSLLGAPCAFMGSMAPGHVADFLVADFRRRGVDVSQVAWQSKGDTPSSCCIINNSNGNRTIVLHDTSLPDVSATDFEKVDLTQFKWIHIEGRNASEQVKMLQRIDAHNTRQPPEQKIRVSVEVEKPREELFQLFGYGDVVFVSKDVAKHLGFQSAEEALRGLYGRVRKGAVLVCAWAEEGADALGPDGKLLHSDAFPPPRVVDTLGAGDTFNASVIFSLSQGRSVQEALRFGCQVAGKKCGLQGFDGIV

[6] = Kinase kinetic parameters on (L)-ribulose (pyruvate kinase/lactate dehydrogenase coupling reaction); type: biochemical
Text: The same approach was used to characterize these parameters on (L)-ribulose: […]

[7] = Kinase kinetic parameters on (D)-xylulose (pyruvate kinase/lactate dehydrogenase coupling reaction); type: biochemical
[8] = Aldolase kinetic parameters on (L)-ribulose-1-phosphate (NADH-coupled assay); type: biochemical
Text: (L)-ribulose-1 kinase: (L)-ribulose+ATP→(L)-ribulose-1P+ADP (L)-ribulose-1P aldolase: (L)-ribulose-1P→DHAP+glycolaldehyde Glycerol-3P dehydrogenase: DHAP+NADH→Glycerol-3P+NAD

[9] = substrate: O=P(O)(O)OC[C@H]1OC(O)(COP(=O)(O)O)[C@@H](O)[C@@H]1O; assay: purified protein, by the assay type; settings: other: Hepes buffer pH 7, NADH consumption at 340 nm, 37.0 °C
[10] = Aldolase kinetic parameters on (D)-xylulose-1-phosphate (NADH-coupled assay); type: biochemical
[11] = substrate: C[C@H](O)[C@@H](O)[C@@H](O)C(=O)CO; assay: Kinetic parameters of candidate kinase by pyruvate kinase/lactate dehydrogenase coupling reaction; type: biochemical, E. coli; settings: other: Table 1A, 4 mM ATP, Hepes buffer pH 7, NADH at 340 nm, 37.0 °C

Chain of (L)-rhamnulose kinase RhaB, E. coli, SEQ ID NO:6 (P32171 whole entry): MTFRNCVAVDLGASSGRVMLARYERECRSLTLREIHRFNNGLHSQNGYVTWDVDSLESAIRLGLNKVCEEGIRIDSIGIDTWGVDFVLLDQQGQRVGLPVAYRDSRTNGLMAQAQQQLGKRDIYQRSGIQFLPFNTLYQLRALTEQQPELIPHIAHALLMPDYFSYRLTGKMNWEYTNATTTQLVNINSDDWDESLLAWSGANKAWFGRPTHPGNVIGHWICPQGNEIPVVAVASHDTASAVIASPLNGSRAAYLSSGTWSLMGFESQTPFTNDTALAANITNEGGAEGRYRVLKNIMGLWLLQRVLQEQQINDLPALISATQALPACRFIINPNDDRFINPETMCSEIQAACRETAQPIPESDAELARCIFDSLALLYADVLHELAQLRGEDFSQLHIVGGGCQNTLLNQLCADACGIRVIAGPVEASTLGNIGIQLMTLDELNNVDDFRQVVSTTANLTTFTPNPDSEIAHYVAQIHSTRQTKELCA

O=C(COP(=O)(O)O)[C@@H](O)[C@H](O)CO [(D)-Xylulose-1P, (D)-xylulose-1-phosphate]
Vmax [1]: 0.81 ± 0.2 U/mg | Vmax [2]: 0.18 ± 0.04 U/mg

O=C(CO)[C@@H](O)[C@H](O)CO [(D)-xylulose]
Km [3]: ns | Vmax [3]: 18.7 U/mg | Km [4]: ns | Vmax [4]: 0.1 U/mg | Km ([5]; Table 1A): 600 µM | Vmax ([5]; Table 1A): 3.1 U/mg

O=C(COP(=O)(O)O)[C@@H](O)[C@@H](O)CO [(L)-Ribulose-1P, (L)-ribulose-1-phosphate]
Vmax [1]: 0.00 U/mg | Vmax [2]: 0.06 ± 0.01 U/mg

O=C(CO)[C@@H](O)[C@@H](O)CO [(L)-ribulose]
Km ([5]; Table 1B): 550 µM | Vmax ([5]; Table 1B): 3.5 U/mg

OCC1(O)OC[C@@H](O)[C@@H](O)[C@@H]1O (stereo partly drawn) [fructose]
Km ([5]; Table 1A): 720 µM | Vmax ([5]; Table 1A): 6 U/mg | Km ([5]; Table 1B): 310 ± 100 µM | Vmax ([5]; Table 1B): 6.59 ± 1.4 U/mg

Khk-C: isoform C of ketohexokinase of H. sapiens, encoded by khkC gene SEQ ID NO:1, expressed from pET28a and purified
functional on (L)-ribulose [6]: functional | functional on (D)-xylulose [7]: functional

B1: Fructose-16bP aldolase FbaB (fructose-1,6 bisphosphate aldolase B), E. coli, SEQ ID NO:9 (Escherichia coli K-12) (protein)
chain: T2 sequence (P0A991 1-350)
activity on (L)-ribulose-1P [8]: has an activity | Km [9]: 330 ± 70 µM | Vmax [9]: 0.52 ± 0.1 U/mg | activity on (D)-xylulose-1P [10]: has an activity

B2: L-fuculokinase FucK (fuculose kinase), E. coli, SEQ ID NO:5 (Escherichia coli K-12) (protein)
chain: T3 sequence (P11553 1-472)
Km [11]: 60 µM | Vmax [11]: 20 U/mg

B3: Fructose-16bP aldolase Aldo-B (aldolase B), H. sapiens, SEQ ID NO:2 (Homo sapiens) (protein)
chain: T1 sequence (P05062 1-364)
Km [9]: 30 ± 10 µM | Vmax [9]: 0.46 ± 0.05 U/mg | activity on (D)-xylulose-1P [10]: has an activity
